A value given as a limit tells only on which side of the number the result lay.

One assay has as its target T1, SIRT1 (Homo sapiens, UniProt Q96EB6).
T1 sequence (Q96EB6 1-747): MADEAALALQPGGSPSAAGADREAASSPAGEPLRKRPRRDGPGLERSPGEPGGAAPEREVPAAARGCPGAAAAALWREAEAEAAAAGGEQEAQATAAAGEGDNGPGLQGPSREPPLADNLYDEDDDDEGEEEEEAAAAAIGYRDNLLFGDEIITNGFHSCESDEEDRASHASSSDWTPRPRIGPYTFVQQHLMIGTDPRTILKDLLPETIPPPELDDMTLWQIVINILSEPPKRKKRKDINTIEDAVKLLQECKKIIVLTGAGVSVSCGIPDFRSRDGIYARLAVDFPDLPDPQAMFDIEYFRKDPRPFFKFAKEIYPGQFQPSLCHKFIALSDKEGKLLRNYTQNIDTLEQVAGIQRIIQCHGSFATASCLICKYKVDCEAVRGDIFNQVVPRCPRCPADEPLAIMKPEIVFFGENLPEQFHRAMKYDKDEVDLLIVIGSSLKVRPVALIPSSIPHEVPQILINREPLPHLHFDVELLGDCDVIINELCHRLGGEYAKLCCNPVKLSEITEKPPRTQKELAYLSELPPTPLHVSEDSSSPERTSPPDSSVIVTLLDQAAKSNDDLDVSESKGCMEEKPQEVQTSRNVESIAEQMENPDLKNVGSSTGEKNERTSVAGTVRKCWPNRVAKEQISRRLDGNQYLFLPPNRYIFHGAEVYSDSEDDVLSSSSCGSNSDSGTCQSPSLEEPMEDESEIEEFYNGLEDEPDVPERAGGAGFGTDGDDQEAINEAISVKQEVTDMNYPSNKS
In words: Trp mass spectrometry assay of SIRT1 activation. The format is biochemical. The following applies: Trp mass spectrometry assay; EC1.5 = concentration of test compound that results in 150% activation of SIRT1. Put shortly: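 N-terminal His-tagged human SIRT1 (10 nM, E. coli BL21(DE3)) with 0.5 μM Ac-RHKK(Ac)W-NH2 peptide and 120 μM βNAD+, 25 min at 25 °C in HEPES pH 7.5, formic acid stop. OAADPR or deacetylated peptide quantified by mass spectrometry; EC1.5 (50% activity increase over control) and Percent Maximum Activation reported.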
For `CS(=O)(=O)Nc1cccc(-c2ccc3c(n2)N(C(=O)Nc2cnccn2)[C@H]2CCN3C2)c1` [Example 418], the “Tryp AVG EC1.5 (μM)” value is “B (B (EC1.5 1-25 μM))”.
Same read-out and setting: the value for `N#Cc1cc(-c2ccc3c(n2)N(C(=O)Nc2cnccn2)[C@H]2CCN3C2)ccc1F` [Example 419] was “A (A (EC1.5<1 μM))”; that for `O=C(Nc1ccncn1)N1c2nc(N3CCCNCC3)ccc2N2CCC[C@H]1C2` [Example 420] was “C (C (EC1.5>25 μM))”.
In the case of `O=C(Nc1ccncc1F)N1c2nc(-c3cccc(Cl)c3)ccc2N2CCC[C@H]1C2` [Example 421], the “Tryp AVG EC1.5 (μM)” value is listed as “A (A (EC1.5<1 μM))”.
In the case of `O=C(Nc1ccccn1)N1c2nc(-c3ccnc(N4CC[C@H](F)C4)c3)ccc2N2CC[C@H]1C2` [Example 422], the “Tryp AVG EC1.5 (μM)” value is reported as “A (A (EC1.5<1 μM))”.
As for `O=C(Nc1cnccn1)N1c2nc(-c3ccnc(N4CCC(F)(F)C4)c3)ccc2N2CC[C@H]1C2` [Example 423], the “Tryp AVG EC1.5 (μM)” value is “A (A (EC1.5<1 μM))”.
With `COc1cc(NC(=O)N2c3nc(-c4ccnc(N5CC[C@@H](F)C5)c4)ccc3N3CC[C@H]2C3)ncn1` [Example 424], the “Tryp AVG EC1.5 (μM)” value was “B (B (EC1.5 1-25 μM))”.
Still for that read-out and setting: the value for `O=C(Nc1ccc(F)cn1)N1c2nc(-c3ccnc(N4CCC(F)(F)C4)c3)ccc2N2CC[C@H]1C2` [Example 425] was “A (A (EC1.5<1 μM))”.
In the case of `N#Cc1ccccc1-c1ccc2c(n1)N(C(=O)Nc1cccnn1)[C@H]1CCCN2C1` [Example 426], the “Tryp AVG EC1.5 (μM)” value is “B (B (EC1.5 1-25 μM))”.
Regarding `Cc1nc(NC(=O)N2c3nc(-c4cncc(C(F)(F)F)c4)ccc3N3CCC[C@H]2C3)sc1C` [Example 427], the “Tryp AVG EC1.5 (μM)” value is “A (A (EC1.5<1 μM))”.
Regarding `O=C(CCCC[C@@H]1SCC2NC(=O)NC21)NCCCCCC(=O)NCc1ccc(NC(=O)N2c3nc(-c4cccc(C(F)(F)F)c4)ccc3N3CC[C@H]2C3)cc1` (stereo partly drawn) [Example 428], the “Tryp AVG EC1.5 (μM)” value is “A (A (EC1.5<1 μM))”.
Same read-out and setting: the value for `NCc1ccc(NC(=O)N2c3nc(-c4cccc(C(F)(F)F)c4)ccc3N3CC[C@H]2C3)cc1` [Example 429] was “B (B (EC1.5 1-25 μM))”; that for `O=C(CCCC[C@@H]1SCC2NC(=O)NC21)NCCCCCC(=O)NCc1ccc(NC(=O)N2c3nc(-c4cccc(C(F)(F)F)c4)ccc3N3CCC[C@H]2C3)cc1` (stereo partly drawn) [Example 430] was “A (A (EC1.5<1 μM))”.
Still for that read-out and setting: the value for `O=C(Nc1ccc(F)cn1)N1c2nc(-c3cncc(F)c3)ccc2N2CCC[C@H]1C2` [Example 431] was “A (A (EC1.5<1 μM))”.
For the compound `O=C(Nc1cnccn1)N1c2nc(-c3cncc(F)c3)ccc2N2CCC[C@H]1C2` [Example 432], the “Tryp AVG EC1.5 (μM)” value was “B (B (EC1.5 1-25 μM))”.
Turning to `CS(=O)(=O)N1CCCN(c2ccc3c(n2)N(C(=O)Nc2ccncn2)[C@H]2CCCN3C2)CC1` [Example 433], the “Tryp AVG EC1.5 (μM)” value is given as “B (B (EC1.5 1-25 μM))”.
Consider `CC(=O)N1CCCN(c2ccc3c(n2)N(C(=O)Nc2ccncn2)[C@H]2CCCN3C2)CC1` [Example 434], for which the “Tryp AVG EC1.5 (μM)” value was “C (C (EC1.5>25 μM))”.
Still for that read-out and setting: the same measure for `O=C(Nc1cnccn1)N1c2nc(-c3ccc(Cl)c(C(F)(F)F)c3)ccc2N2CC[C@H]1C2` [Example 435]: “A (A (EC1.5<1 μM))”.
In the case of `O=C(Nc1cnccn1)N1c2nc(-c3ccnc(N4CC[C@H](F)C4)c3)ccc2N2CC[C@H]1C2` [Example 436], the “Tryp AVG EC1.5 (μM)” value is reported as “A (A (EC1.5<1 μM))”.
The same measure, in the same setting: the value for `COc1cc(NC(=O)N2c3nc(-c4ccnc(N5CC[C@H](F)C5)c4)ccc3N3CC[C@H]2C3)ncn1` [Example 437] was “B (B (EC1.5 1-25 μM))”; that for `N#Cc1ccccc1-c1ccc2c(n1)N(C(=O)Nc1cccnc1)[C@H]1CCCN2C1` [Example 438] was “B (B (EC1.5 1-25 μM))”.
`N#Cc1ccccc1-c1ccc2c(n1)N(C(=O)Nc1cncc(F)c1)[C@H]1CCCN2C1` [Example 439]: the “Tryp AVG EC1.5 (μM)” value is recorded as “B (B (EC1.5 1-25 μM))”.
Same read-out and setting: the value for `COc1cc(NC(=O)N2c3nc(-c4ccccc4C#N)ccc3N3CCC[C@H]2C3)ncn1` [Example 440] was “C (C (EC1.5>25 μM))”.
Still for that read-out and setting: the value for `O=C(Nc1ccccn1)N1c2nc(-c3cccnc3)ccc2N2CCC[C@H]1C2` [Example 441] was “B (B (EC1.5 1-25 μM))”.
For `COc1cc(NC(=O)N2c3nc(-c4cccnc4)ccc3N3CCC[C@H]2C3)ncn1` [Example 442], the “Tryp AVG EC1.5 (μM)” value is “B (B (EC1.5 1-25 μM))”.
On the same count and under the same terms, the same measure for `O=C(Nc1cnccn1)N1c2nc(-c3cccc(Cl)c3)cc(O)c2N2CCC[C@H]1C2` [Example 443]: “B (B (EC1.5 1-25 μM))”; for `CC(C)(C)OC(=O)NCc1ccc(NC(=O)N2c3nc(-c4cccc(C(F)(F)F)c4)ccc3N3CCC[C@H]2C3)cc1` [Example 445]: “A (A (EC1.5<1 μM))”; for `COC(=O)N1CCCN(c2ccc3c(n2)N(C(=O)Nc2ccncn2)[C@H]2CCCN3C2)CC1` [Example 446]: “B (B (EC1.5 1-25 μM))”.
Regarding `CC(C)N1CCCN(c2ccc3c(n2)N(C(=O)Nc2ccncn2)[C@H]2CCCN3C2)CC1` [Example 447], the “Tryp AVG EC1.5 (μM)” value was “C (C (EC1.5>25 μM))”.
The same measure, in the same setting: the value for `O=C(Nc1ccccn1)N1c2nc(-c3ccnc(N4CC[C@@H](F)C4)c3)ccc2N2CC[C@H]1C2` [Example 448] was “B (B (EC1.5 1-25 μM))”; that for `N#Cc1ccccc1-c1ccc2c(n1)N(C(=O)Nc1ccccn1)[C@H]1CCCN2C1` [Example 449] was “B (B (EC1.5 1-25 μM))”; that for `N#Cc1ccccc1-c1ccc2c(n1)N(C(=O)Nc1cnccn1)[C@H]1CCCN2C1` [Example 450] was “B (B (EC1.5 1-25 μM))”.
Still for that read-out and setting: the value for `N#Cc1ccccc1-c1ccc2c(n1)N(C(=O)Nc1ccncn1)[C@H]1CCCN2C1` [Example 451] was “B (B (EC1.5 1-25 μM))”.

The assay is the same for the next values; noted with them: Trp mass spectrometry assay; concentration of test compound giving 150% activation of SIRT1.
For `COc1cc(NC(=O)N2c3nc(-c4cccc(Cl)c4)ccc3N3CCC[C@H]2C3)ncn1` [Example 408], the “Tryp AVG EC1.5 (μM)” value is “A (A (EC1.5<1 μM))”.
On the same count and under the same terms, the value for `O=C(Nc1ccncc1)N1c2nc(-c3cccc(Cl)c3)ccc2N2CCC[C@H]1C2` [Example 409] was “A (A (EC1.5<1 μM))”; that for `O=C(Nc1cncc(F)c1)N1c2nc(-c3ccnc(N4CCC(C(F)(F)F)C4)c3)ccc2N2CC[C@H]1C2` (stereo partly drawn) [Example 410] was “A (A (EC1.5<1 μM))”.
Same read-out and setting: the same measure for `O=C(Nc1cncc(F)c1)N1c2nc(-c3cncc(C(F)(F)F)c3)ccc2N2CCC[C@H]1C2` [Example 411]: “A (A (EC1.5<1 μM))”.
On the same count and under the same terms, the value for `O=C(Nc1cccnn1)N1c2nc(-c3cncc(C(F)(F)F)c3)ccc2N2CCC[C@H]1C2` [Example 412] was “A (A (EC1.5<1 μM))”; that for `Cc1noc(C)c1-c1ccc2c(n1)N(C(=O)Nc1cnccn1)[C@H]1CCN2C1` [Example 413] was “C (C (EC1.5>25 μM))”; that for `Cn1nccc1-c1ccc2c(n1)N(C(=O)Nc1cnccn1)[C@H]1CCN2C1` [Example 414] was “B (B (EC1.5 1-25 μM))”.
On to `CS(=O)(=O)c1cccc(-c2ccc3c(n2)N(C(=O)Nc2cnccn2)[C@H]2CCN3C2)c1` [Example 415], for which the “Tryp AVG EC1.5 (μM)” value is on record as “A (A (EC1.5<1 μM))”.
Same read-out and setting: the same measure for `O=C(Nc1cnccn1)N1c2nc(-c3cc(F)c(F)c(F)c3)ccc2N2CC[C@H]1C2` [Example 416]: “C (C (EC1.5>25 μM))”; for `O=C(Nc1cnccn1)N1c2nc(-c3cncc(Cl)c3)ccc2N2CCC[C@H]1C2` [Example 417]: “A (A (EC1.5<1 μM))”.

Staying with this assay, now noted: Trp mass spectrometry assay; percent maximum fold activation of SIRT1; read-out: Tryp % Fold Act.
Turning to `O=C(Nc1ccccn1)N1c2nc(-c3ccnc(N4CC[C@H](F)C4)c3)ccc2N2CC[C@H]1C2` [Example 422], the Emax was more than 150%.
On the same count and under the same terms, the value for `O=C(Nc1cnccn1)N1c2nc(-c3cccc(Cl)c3)cc(O)c2N2CCC[C@H]1C2` [Example 443] was more than 150%.

(Values after patent publication US9834558B2, “Substituted bridged urea analogs as sirtuin modulators” (GLAXOSMITHKLINE LLC, priority 2013, dated 2017).)
